Values belong to the molecule of their own block, whether it stands above or below them. Activity calls are given as the source filed them.
Assays:
[1] = target: Trypsin (Sus scrofa, UniProt P00761); assay: trypsin protease activity blockade – biochemical, quenched peptide fluorescence, cherry-pick, selectivity assay for Rce1 protease inhibitor project, dose response (AID 488789)
[2] = target: CAAX prenyl protease 2 (Homo sapiens, UniProt Q9Y256); assay: inhibition of Ras-converting CAAX protease Rce1 – biochemical, yeast membranes, quenched-peptide fluorescence, cherry-pick, dose response (AID 588849)
[3] = target: Beta-arrestin-1 (Homo sapiens, UniProt P49407); assay: beta-arrestin/AP2 interaction blockers, potency – biochemical, cherry pick 1, beta2-adaptin appendage, flow cytometry, dose response (AID 588783); assay type: functional
[4] = reduction of Shn3 3'UTR-driven luciferase in osteoblasts – cell-based, Clone20 osteoblasts, firefly luciferase, cherry-picked, dose response (AID 624132); assay type: functional;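 further: firefly luciferase luminescence from reporter carrying the Shn3 3'UTR in osteoblasts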
[5] = loss of viability in HepG2 cells – cell-based, CellTiter-Glo, cherry-picked, cytotoxicity control for Shn3 inhibitor project, dose response (AID 624134); assay type: functional
[6] = target: Beta-galactosidase (Escherichia coli, UniProt Q8VNN2); assay: PubChem AID 485352; assay type: functional
[7] = system: HEK293; assay: cells; conditions: Homo sapiens
[8] = Fluorescence-based cell-based high throughput dose response assay for inhibitors of the interaction of nucleotide-binding oligomerization domain containing 2 (NOD2) and the receptor-interacting serine-threonine kinase 2 (RIPK2).; assay type: functional; conditions: Homo sapiens
[9] = target: T1, Type-1 angiotensin II receptor (Homo sapiens, UniProt P30556); assay: antagonism of angiotensin II type 1 receptor – cell-based, uHTS hits, selectivity assay for APJ receptor antagonist project, dose response (AID 463214); assay type: functional;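 further: antagonist potency against angiotensin II stimulated AT1 response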
T1 sequence (P30556 whole entry): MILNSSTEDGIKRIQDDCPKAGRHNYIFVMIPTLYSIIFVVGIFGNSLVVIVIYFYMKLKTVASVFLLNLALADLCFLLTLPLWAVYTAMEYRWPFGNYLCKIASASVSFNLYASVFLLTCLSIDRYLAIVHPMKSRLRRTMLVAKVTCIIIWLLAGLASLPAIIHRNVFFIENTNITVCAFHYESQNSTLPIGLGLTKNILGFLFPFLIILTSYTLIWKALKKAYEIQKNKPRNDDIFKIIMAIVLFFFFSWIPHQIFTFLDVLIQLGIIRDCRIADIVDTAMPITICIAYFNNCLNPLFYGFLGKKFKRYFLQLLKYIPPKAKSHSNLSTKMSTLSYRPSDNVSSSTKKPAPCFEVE

[10] = system: HEK293; assay: cells; conditions: Homo sapiens; remark: listed apart in the source
[11] = target: T2, Short transient receptor potential channel 4 (Mus musculus, UniProt Q9QUQ5); assay: potency of mouse TRPC4 calcium flux blockers – cell-based, HEK293 TRPC4/mu-opioid, DAMGO stimulus, Fluo-4, dose response (AID 492994); assay type: functional
T2 sequence (Q9QUQ5 whole entry): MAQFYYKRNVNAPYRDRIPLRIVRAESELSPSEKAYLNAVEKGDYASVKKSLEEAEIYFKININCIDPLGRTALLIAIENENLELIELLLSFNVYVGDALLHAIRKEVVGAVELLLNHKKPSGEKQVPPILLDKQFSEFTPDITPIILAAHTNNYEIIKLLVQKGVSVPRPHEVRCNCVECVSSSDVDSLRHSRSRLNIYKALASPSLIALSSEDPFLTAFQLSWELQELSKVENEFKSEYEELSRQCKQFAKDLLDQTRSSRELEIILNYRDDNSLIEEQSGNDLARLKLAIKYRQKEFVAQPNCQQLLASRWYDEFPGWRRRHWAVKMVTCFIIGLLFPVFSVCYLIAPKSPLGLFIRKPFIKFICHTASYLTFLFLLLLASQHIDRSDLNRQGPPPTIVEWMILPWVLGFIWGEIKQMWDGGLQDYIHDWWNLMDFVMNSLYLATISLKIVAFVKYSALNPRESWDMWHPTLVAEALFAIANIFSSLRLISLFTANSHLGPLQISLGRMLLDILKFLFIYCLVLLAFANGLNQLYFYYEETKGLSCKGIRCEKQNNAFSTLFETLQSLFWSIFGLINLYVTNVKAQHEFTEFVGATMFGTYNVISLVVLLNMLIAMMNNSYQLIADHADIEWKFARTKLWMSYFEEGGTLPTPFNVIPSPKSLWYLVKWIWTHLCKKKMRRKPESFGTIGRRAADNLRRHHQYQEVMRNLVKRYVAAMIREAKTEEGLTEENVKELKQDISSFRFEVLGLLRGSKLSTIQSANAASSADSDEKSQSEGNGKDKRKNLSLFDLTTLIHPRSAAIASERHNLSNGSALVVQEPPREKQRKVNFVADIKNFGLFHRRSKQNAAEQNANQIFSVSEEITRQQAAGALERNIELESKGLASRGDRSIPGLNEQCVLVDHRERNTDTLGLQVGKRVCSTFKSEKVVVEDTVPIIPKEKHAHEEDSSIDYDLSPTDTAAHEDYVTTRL

[12] = target: T2, Short transient receptor potential channel 4; assay: SAR Analysis for the identification of selective inhibits of the transient receptor potential cation channel C4 (TRPC4): Automated Electrophysiology_2. [Related pubchem assays (depositor defined):AID2256]; assay type: functional
[13] = target: Mu-type opioid receptor (Homo sapiens, UniProt P35372); assay: (§1) Counterscreen for agonists of heterodimerization of the mu 1 (OPRM1) and delta 1 (OPRD1) opioid receptors: Luminescence-based cell-based high throughput dose response assay to identify agonists of OPRM1 homodimerization.; assay type: functional
[14] = target: T2, Short transient receptor potential channel 4; assay: calcium entry via TRPC4 opening agents – cell-based, HEK293 TRPC4/mu-opioid, Fluo-4 calcium, dose response (AID 434937); assay type: functional
[15] = target: 5-hydroxytryptamine receptor 5A (Homo sapiens, UniProt P47898); assay: Counterscreen for agonists of OPRM1-OPRD1 heterodimerization: luminescence-based cell-based high throughput dose response assay to identify agonists of 5-hydroxytryptamine (serotonin) 5A receptor (HTR5A). [Related pubchem assays (depositor defined):AID504326, AID504355, AID504692, AID504904, AID504905]; assay type: functional
[16] = target: Delta-type opioid receptor (Homo sapiens, UniProt P41143); assay: as §1, with “of OPRD1” for “of OPRM1”, “homodimerization. [Related pubchem assays (depositor defined):AID504326, AID504355, AID504692, AID504904, AID504905]” for “homodimerization.”; assay type: functional
Delta-type opioid receptor, sequence (P41143 whole entry): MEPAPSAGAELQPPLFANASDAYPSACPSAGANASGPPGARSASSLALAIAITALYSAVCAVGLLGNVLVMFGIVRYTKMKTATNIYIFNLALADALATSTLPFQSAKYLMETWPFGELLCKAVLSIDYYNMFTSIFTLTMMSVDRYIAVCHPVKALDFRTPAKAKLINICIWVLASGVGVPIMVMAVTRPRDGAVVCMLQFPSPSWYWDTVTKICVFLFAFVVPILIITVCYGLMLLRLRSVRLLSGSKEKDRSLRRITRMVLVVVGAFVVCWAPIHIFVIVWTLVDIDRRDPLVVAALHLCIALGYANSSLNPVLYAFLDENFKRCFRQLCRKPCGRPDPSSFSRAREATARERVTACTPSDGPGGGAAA

5-hydroxytryptamine receptor 5A, sequence (P47898 whole entry): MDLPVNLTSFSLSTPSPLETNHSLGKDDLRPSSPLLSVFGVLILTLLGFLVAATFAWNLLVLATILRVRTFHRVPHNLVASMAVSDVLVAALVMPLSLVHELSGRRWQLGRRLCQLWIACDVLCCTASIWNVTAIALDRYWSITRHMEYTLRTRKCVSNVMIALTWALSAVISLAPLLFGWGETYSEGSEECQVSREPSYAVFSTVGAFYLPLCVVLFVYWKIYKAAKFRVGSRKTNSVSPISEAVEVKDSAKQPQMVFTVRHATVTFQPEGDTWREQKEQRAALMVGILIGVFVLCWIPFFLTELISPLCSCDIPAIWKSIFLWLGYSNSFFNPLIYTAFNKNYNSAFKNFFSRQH
Mu-type opioid receptor, sequence (P35372 whole entry): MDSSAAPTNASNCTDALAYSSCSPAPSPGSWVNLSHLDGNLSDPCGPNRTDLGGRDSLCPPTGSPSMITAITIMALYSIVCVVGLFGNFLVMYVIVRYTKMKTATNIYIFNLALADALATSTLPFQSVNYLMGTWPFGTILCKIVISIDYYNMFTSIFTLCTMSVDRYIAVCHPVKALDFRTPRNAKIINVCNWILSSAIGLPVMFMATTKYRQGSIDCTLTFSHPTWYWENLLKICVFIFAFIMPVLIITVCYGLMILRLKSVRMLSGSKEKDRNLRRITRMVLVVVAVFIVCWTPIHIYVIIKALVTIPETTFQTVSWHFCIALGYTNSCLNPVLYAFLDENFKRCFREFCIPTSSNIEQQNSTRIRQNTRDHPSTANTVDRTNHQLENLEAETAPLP
Beta-arrestin-1, sequence (P49407 whole entry): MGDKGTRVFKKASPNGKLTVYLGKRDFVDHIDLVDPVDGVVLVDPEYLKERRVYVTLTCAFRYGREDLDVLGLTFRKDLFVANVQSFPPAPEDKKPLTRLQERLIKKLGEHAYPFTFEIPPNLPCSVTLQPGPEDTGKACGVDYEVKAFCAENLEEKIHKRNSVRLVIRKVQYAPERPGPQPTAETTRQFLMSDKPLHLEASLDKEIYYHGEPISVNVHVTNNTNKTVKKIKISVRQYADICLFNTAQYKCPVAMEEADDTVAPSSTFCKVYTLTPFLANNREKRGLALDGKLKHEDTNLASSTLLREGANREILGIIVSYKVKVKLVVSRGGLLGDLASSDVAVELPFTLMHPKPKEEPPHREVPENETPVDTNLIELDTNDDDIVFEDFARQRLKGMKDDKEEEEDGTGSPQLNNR
Beta-galactosidase, sequence (Q8VNN2 whole entry): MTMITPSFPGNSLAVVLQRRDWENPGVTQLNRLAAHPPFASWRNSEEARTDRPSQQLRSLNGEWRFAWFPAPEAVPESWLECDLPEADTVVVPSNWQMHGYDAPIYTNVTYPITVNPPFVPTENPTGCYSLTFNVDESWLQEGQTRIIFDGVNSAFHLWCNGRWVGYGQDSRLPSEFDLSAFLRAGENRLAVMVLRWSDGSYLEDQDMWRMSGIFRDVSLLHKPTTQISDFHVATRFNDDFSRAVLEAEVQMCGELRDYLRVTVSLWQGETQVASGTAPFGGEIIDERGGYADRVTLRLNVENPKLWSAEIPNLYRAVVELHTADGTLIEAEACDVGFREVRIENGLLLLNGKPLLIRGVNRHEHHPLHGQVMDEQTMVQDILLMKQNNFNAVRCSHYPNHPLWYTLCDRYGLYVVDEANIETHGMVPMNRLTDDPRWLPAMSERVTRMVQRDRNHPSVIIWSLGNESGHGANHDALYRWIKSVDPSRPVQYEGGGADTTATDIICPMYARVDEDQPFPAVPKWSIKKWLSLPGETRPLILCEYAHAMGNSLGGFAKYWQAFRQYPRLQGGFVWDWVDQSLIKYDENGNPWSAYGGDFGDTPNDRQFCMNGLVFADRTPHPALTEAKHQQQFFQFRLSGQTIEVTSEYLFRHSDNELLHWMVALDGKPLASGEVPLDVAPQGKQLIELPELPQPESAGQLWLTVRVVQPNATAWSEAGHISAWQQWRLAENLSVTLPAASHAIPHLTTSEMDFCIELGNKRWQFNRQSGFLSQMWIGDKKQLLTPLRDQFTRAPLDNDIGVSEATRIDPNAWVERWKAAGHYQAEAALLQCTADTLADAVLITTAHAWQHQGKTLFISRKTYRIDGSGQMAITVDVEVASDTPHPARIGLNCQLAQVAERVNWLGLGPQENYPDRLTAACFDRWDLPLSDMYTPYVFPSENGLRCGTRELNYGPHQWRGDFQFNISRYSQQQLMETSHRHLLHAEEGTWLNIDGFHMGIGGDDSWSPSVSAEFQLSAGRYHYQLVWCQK
CAAX prenyl protease 2, sequence (Q9Y256 whole entry): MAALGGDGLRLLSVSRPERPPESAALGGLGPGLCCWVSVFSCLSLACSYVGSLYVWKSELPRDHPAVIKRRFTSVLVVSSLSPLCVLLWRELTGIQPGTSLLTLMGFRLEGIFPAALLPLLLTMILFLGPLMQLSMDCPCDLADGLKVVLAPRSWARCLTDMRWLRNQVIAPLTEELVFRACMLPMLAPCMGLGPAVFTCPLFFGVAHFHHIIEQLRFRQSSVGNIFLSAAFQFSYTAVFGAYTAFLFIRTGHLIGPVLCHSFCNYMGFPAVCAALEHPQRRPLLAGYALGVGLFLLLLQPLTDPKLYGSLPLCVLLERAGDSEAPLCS
Trypsin, sequence (P00761 whole entry): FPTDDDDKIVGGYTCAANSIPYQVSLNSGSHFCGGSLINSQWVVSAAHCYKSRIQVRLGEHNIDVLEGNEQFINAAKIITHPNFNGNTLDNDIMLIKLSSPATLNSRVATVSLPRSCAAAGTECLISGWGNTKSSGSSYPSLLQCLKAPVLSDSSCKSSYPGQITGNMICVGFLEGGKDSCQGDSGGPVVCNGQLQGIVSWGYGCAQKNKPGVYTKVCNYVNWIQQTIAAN

IC50 [3]: 3.12 µM (active)
Structure (SMILES): CCN1/C(=C/c2ccc3cc(C)ccc3[n+]2C)Sc2ccc3sccc3c21

EC50 [13]: > 92.5 µM (inactive)
EC50 [14]: 0.531 µM (active)
EC50 [15]: > 92.5 µM (inactive)
EC50 [16]: > 92.5 µM (inactive)
Structure (SMILES): CN(C)C(CNC(=O)Cc1ccc([N+](=O)[O-])cc1)c1ccccc1 (stereo unspecified)

The remaining lines, values behind:

Structure (SMILES): COc1ccc(/C=C\c2cc(OC)c(OC)cc2CC[N+](C)(C)C)cc1OC
AC50 [1]: 11.6 µM (active)
AC50 [2]: 13.2 µM (active)

Structure (SMILES): Cc1cccc(C(=O)Nc2ccc(C(=O)/C=C/c3ccncc3)cc2)c1
AC50 [4]: 3.41 µM (active)
AC50 [5]: 36.4 µM (active)
EC50 [6]: > 40 µM (inactive)
EC50 [7]: > 59.6 µM (inactive)
IC50 [8]: 3.51 µM (active)
IC50 [9]: 9.71 µM (active)
EC50 [10]: > 59.6 µM (inactive)

Structure (SMILES): Cc1cc(N2CCCCCC2)nc2ccc(F)cc12
IC50 [11]: 3.99 µM (active)
IC50 [12]: 1.63 µM (active)
